According to the kinase profiling compilation of Christmann-Franck et al. (2016):
“And” between values parts separate entries of the source, which are not always exact repeats. Equal entries are not always repeated.

Key:
Experiment in all cases: radiometric filter-binding kinase assay, Kinase HotSpot
Conditions in all cases: compound 0.5 µM; ATP 10 µM
[1] = biological target: SRC (human) (UniProt P12931)
[2] = biological target: TGFBR2 (human) (UniProt P37173)
[3] = biological target: STK24 (human) (UniProt Q9Y6E0)
[4] = biological target: MAP4K2 (human) (UniProt Q12851)
[5] = biological target: PAK4 (human) (UniProt O96013)
[6] = biological target: DSTYK (human) (UniProt Q6XUX3)
[7] = biological target: MELK (human) (UniProt Q14680)
[8] = biological target: PRKD3 (human) (UniProt O94806)
[9] = biological target: INSR (human) (UniProt P06213)
[10] = biological target: PAK1 (human) (UniProt Q13153)
[11] = biological target: NEK3 (human) (UniProt P51956)
[12] = biological target: DCLK2 (human) (UniProt Q8N568)
[13] = biological target: PRKX (human) (UniProt P51817)
[14] = biological target: CSNK1E (human) (UniProt P49674)
[15] = biological target: MAP3K7 TAB1 (human) (UniProt O43318+Q15750)
[16] = biological target: LTK (human) (UniProt P29376)
[17] = biological target: MYLK (human) (UniProt Q15746)
[18] = biological target: EPHA1 (human) (UniProt P21709)
[19] = biological target: ADRBK2 (human) (UniProt P35626)
[20] = biological target: AKT3 (human) (UniProt Q9Y243)
[21] = biological target: LYN (human) (UniProt P07948)
[22] = biological target: PBK (human) (UniProt Q96KB5)
[23] = biological target: CDK6 CCND1 (human) (UniProt Q00534+P24385)
[24] = biological target: NEK4 (human) (UniProt P51957)
[25] = biological target: CLK2 (human) (UniProt P49760)
[26] = biological target: SYK (human) (UniProt P43405)
[27] = biological target: STK33 (human) (UniProt Q9BYT3)
[28] = biological target: MAPK10 (human) (UniProt P53779)
[29] = biological target: TGFBR1 (human) (UniProt P36897)
[30] = biological target: CAMK1 (human) (UniProt Q14012)
[31] = biological target: TNK2 (human) (UniProt Q07912)
[32] = system: SGK1 (human), O00141 [S422D]
[33] = biological target: MAP3K3 (human) (UniProt Q99759)
[34] = biological target: CAMK2A (human) (UniProt Q9UQM7)
[35] = biological target: RET (human) (UniProt P07949)
[36] = biological target: PAK3 (human) (UniProt O75914)
[37] = biological target: MUSK (human) (UniProt O15146)
[38] = biological target: IRAK4 (human) (UniProt Q9NWZ3)
[39] = biological target: GSG2 (human) (UniProt Q8TF76)
[40] = biological target: MAPK9 (human) (UniProt P45984)
[41] = biological target: MAPKAPK2 (human) (UniProt P49137)
[42] = biological target: TAOK2 (human) (UniProt Q9UL54)
Chain of TAOK2 (human) (Q9UL54 whole entry, looked up): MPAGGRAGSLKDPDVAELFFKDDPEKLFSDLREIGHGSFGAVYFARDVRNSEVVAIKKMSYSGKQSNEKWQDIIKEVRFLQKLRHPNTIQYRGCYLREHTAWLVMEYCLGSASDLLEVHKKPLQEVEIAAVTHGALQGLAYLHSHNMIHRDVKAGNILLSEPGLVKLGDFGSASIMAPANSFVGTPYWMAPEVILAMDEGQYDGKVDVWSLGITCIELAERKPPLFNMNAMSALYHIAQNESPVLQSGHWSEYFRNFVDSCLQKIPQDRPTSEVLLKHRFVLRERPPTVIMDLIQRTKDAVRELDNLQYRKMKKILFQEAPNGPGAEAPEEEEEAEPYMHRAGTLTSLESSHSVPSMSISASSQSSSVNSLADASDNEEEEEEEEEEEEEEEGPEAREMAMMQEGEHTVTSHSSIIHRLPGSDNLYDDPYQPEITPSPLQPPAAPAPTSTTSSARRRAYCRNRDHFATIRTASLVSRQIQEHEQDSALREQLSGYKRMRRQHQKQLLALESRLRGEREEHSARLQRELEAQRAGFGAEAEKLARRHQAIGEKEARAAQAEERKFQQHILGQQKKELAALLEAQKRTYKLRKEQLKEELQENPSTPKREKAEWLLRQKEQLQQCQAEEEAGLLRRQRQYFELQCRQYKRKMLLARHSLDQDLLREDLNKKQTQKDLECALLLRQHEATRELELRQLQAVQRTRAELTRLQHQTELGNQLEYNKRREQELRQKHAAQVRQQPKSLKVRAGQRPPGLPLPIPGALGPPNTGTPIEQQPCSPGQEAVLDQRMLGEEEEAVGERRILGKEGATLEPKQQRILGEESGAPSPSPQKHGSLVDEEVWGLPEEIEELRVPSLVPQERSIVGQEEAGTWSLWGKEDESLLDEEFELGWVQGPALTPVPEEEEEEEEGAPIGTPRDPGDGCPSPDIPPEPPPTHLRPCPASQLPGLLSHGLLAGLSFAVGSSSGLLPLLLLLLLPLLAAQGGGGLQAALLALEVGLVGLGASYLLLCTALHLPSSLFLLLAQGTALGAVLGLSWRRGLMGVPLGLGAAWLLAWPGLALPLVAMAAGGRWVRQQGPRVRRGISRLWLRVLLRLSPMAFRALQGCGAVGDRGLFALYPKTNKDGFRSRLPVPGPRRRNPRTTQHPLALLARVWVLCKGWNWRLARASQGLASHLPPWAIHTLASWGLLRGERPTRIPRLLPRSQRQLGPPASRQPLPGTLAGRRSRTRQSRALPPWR

Chain of SGK1 (human), O00141 [S422D] (O00141 whole entry S422D, looked up): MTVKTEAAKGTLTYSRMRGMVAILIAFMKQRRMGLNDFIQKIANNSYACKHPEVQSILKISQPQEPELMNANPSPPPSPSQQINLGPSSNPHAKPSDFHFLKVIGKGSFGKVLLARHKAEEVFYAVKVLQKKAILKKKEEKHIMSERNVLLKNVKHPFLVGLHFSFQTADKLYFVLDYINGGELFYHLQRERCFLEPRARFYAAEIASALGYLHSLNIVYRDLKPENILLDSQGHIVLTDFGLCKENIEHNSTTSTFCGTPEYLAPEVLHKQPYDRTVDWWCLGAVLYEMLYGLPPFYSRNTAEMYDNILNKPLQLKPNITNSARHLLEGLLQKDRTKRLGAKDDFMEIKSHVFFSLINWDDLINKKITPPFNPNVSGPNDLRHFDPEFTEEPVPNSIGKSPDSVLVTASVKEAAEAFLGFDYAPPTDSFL
Chain of MAP3K7 TAB1 (human) (O43318 whole entry, looked up): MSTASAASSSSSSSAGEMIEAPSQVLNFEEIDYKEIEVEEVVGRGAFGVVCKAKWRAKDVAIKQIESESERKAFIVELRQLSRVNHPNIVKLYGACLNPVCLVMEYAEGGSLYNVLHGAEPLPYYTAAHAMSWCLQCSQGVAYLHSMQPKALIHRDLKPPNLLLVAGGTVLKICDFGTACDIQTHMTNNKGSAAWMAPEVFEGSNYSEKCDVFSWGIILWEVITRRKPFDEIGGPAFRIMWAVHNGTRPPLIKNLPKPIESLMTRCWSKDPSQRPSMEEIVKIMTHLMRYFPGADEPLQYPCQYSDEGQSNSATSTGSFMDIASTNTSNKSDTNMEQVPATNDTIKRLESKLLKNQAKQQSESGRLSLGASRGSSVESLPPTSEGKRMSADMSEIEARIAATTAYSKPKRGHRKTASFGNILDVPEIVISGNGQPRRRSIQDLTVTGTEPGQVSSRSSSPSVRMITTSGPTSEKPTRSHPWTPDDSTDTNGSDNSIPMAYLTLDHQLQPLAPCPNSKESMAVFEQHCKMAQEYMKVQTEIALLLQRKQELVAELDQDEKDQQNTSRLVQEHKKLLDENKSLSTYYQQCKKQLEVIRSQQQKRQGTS
Chain of MAP3K7 TAB1 (human) (Q15750 whole entry, looked up): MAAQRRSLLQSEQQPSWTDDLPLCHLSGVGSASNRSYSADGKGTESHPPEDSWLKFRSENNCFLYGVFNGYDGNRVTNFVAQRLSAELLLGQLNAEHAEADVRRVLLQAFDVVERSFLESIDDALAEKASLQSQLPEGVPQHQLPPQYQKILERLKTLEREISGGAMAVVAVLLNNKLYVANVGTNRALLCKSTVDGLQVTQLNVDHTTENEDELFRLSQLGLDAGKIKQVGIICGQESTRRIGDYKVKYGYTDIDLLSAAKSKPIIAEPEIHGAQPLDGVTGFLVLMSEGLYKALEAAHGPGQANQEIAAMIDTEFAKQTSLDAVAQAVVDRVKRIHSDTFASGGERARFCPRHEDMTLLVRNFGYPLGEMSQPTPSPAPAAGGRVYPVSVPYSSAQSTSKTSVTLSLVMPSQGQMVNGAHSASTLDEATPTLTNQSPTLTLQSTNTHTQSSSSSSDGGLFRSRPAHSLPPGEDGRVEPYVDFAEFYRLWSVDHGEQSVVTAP
Chain of PRKX (human) (P51817 whole entry, looked up): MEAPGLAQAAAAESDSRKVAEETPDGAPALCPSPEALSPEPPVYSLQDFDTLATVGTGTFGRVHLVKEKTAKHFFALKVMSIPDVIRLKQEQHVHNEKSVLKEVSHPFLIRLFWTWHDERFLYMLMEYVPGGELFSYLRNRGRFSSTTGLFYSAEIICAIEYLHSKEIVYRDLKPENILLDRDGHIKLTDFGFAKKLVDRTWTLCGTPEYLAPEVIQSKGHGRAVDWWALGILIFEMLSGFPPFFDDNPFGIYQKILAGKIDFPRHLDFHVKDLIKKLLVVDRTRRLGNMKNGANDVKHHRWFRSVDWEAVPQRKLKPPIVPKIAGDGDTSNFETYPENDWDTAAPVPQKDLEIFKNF
Chain of MELK (human) (Q14680 whole entry, looked up): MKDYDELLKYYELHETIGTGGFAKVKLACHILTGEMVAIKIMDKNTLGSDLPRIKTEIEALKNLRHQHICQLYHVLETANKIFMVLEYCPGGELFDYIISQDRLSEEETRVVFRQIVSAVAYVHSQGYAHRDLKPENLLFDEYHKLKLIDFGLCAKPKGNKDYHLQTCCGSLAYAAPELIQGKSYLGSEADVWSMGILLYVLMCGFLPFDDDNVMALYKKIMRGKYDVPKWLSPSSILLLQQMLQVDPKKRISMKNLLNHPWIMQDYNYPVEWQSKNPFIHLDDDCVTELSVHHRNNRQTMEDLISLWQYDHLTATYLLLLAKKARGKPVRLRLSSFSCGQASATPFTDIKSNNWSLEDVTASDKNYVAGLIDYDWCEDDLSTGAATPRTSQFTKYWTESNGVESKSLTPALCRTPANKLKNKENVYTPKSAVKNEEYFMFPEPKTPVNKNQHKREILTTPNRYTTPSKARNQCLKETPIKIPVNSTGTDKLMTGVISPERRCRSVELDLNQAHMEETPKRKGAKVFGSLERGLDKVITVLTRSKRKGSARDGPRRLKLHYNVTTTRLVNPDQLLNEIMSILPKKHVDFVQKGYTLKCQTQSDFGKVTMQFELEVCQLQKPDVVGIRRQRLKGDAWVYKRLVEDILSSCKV
Chain of CSNK1E (human) (P49674 whole entry, looked up): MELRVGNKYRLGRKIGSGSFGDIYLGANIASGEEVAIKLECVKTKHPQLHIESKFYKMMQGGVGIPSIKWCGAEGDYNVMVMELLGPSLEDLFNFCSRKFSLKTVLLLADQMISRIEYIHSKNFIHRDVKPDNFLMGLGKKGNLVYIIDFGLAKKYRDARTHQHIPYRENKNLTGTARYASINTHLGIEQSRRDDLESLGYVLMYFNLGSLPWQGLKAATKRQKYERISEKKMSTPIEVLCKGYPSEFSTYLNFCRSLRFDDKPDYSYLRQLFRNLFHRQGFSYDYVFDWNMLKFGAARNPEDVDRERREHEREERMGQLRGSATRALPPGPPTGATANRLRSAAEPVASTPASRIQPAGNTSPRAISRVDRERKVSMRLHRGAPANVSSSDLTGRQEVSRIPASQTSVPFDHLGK
Chain of MAP3K3 (human) (Q99759 whole entry, looked up): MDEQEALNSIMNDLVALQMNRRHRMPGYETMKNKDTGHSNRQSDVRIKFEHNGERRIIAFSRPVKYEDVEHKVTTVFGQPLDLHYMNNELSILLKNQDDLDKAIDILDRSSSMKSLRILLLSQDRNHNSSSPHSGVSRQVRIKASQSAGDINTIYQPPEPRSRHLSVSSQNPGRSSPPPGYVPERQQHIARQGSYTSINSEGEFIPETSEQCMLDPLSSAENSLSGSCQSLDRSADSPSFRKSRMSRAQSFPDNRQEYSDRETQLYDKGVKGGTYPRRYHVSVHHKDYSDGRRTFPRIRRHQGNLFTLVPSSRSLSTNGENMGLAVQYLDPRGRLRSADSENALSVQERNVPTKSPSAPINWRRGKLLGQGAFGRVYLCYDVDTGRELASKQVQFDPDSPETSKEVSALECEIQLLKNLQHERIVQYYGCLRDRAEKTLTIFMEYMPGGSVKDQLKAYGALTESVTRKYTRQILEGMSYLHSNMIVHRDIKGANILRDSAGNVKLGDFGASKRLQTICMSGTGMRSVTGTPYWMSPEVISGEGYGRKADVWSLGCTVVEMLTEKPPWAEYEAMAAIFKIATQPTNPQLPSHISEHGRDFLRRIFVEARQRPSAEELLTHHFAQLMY

In the case of `O=c1cc(N2CCOCC2)oc2c(-c3ccccc3)cccc12`, the residual activity [1] is reported as 96.3%, the residual activity [2] is reported as 142% and the residual activity [3] is reported as 97.1%. For the same compound, the residual activity [4] was 87.8%, the residual activity [5] was 92.8% and the residual activity [6] was 113%. For the same compound, the residual activity [7] was 91.3%, the residual activity [8] was 92.5% and the residual activity [9] was 104%. The residual activity [10] was 97.8%, the residual activity [11] was 102% and the residual activity [12] was 97.6%. It also gave a residual activity [13] of 101%, a residual activity [14] of 103% and a residual activity [15] of 85.4%. For the same compound, the residual activity [16] was 87.8%, the residual activity [17] was 97.8% and the residual activity [18] was 101%. The residual activity [19] was 99.8%, the residual activity [20] was 102% and the residual activity [21] was 94.5% and 99.4%. For the same compound, the residual activity [22] was 110%, the residual activity [23] was 97.9% and the residual activity [24] was 95.1%. For the same compound, the residual activity [25] was 100%, the residual activity [26] was 99.7% and the residual activity [27] was 92.1%. For the same compound, the residual activity [28] was 87.1%, the residual activity [29] was 97.5% and the residual activity [30] was 96.7%. For the same compound, the residual activity [31] was 88.7%, the residual activity [32] was 101% and the residual activity [33] was 93.4%. The residual activity [34] was 91.1%, the residual activity [35] was 99.2% and the residual activity [36] was 104%. For the same compound, the residual activity [37] was 102%, the residual activity [38] was 96% and the residual activity [39] was 93.4%. It also gave a residual activity [40] of 102% and a residual activity [41] of 103%.
Work on `c1ccc(-c2cnc(Nc3ccc(OCCN4CCCC4)cc3)s2)cc1` yielded a residual activity [1] of 75.3%, a residual activity [2] of 129% and a residual activity [3] of 99.6%. The residual activity [4] was 113%, the residual activity [5] was 106% and the residual activity [42] was 70.7%. It also gave a residual activity [6] of 90.8%, a residual activity [7] of 83.5% and a residual activity [8] of 74%. It also gave a residual activity [9] of 95%, a residual activity [10] of 97% and a residual activity [11] of 92.9%. It also gave a residual activity [12] of 87.6%, a residual activity [13] of 101% and a residual activity [14] of 81.2%. It also gave a residual activity [15] of 102%, a residual activity [16] of 93.8% and a residual activity [17] of 96.9%. The residual activity [18] was 85.3%, the residual activity [19] was 103% and the residual activity [21] was 65.1% and 87.5%. The residual activity [22] was 108%, the residual activity [23] was 40.3% and the residual activity [24] was 96.1%. For the same compound, the residual activity [25] was 102%, the residual activity [26] was 89.2% and the residual activity [27] was 91%. For the same compound, the residual activity [28] was 92.9%, the residual activity [29] was 97% and the residual activity [30] was 86.3%. It also gave a residual activity [31] of 66.6%, a residual activity [32] of 83.6% and a residual activity [33] of 99.2%. For the same compound, the residual activity [34] was 62.9%, the residual activity [35] was 84.2% and the residual activity [36] was 99.1%. It also gave a residual activity [37] of 84.2%, a residual activity [38] of 86.1% and a residual activity [39] of 106%. The residual activity [40] was 144%.
`COc1cc2c(Nc3ccc(Br)cc3F)ncnc2cc1OCC1CCN(C)CC1` gave a residual activity [1] of 11%, a residual activity [2] of 102% and a residual activity [3] of 104%. It also gave a residual activity [5] of 90.2%, a residual activity [42] of 104% and a residual activity [6] of 96%. For the same compound, the residual activity [7] was 94.4%, the residual activity [8] was 91.7% and the residual activity [9] was 102%. For the same compound, the residual activity [10] was 108%, the residual activity [11] was 103% and the residual activity [12] was 104%. It also gave a residual activity [13] of 105%, a residual activity [15] of 93.9% and a residual activity [16] of 64.6%. For the same compound, the residual activity [17] was 94.2%, the residual activity [18] was 31.7% and the residual activity [19] was 97.4%. For the same compound, the residual activity [20] was 100%, the residual activity [21] was 10.8% and 16.7% and the residual activity [22] was 98.9%. For the same compound, the residual activity [23] was 98.7%, the residual activity [24] was 102% and the residual activity [25] was 89.7%. The residual activity [26] was 101%, the residual activity [27] was 85.1% and the residual activity [28] was 96.9%. The residual activity [29] was 102%, the residual activity [30] was 81.6% and the residual activity [31] was 85.4%. The residual activity [32] was 115%, the residual activity [33] was 102% and the residual activity [34] was 99.8%. It also gave a residual activity [36] of 103%, a residual activity [37] of 94.6% and a residual activity [38] of 35.3%. The residual activity [39] was 92.6%, the residual activity [40] was 96.4% and the residual activity [41] was 99.5%.
Compound `CN[C@@H]1C[C@H]2O[C@@](C)([C@@H]1OC)n1c3ccccc3c3c4c(c5c6ccccc6n2c5c31)C(=O)NC4` has a residual activity [1] of 1.46%, a residual activity [9] of 3.14% and a residual activity [16] of 0.543%. For the same compound, the residual activity [20] was 2.97%, the residual activity [21] was 1.18% and 5.72% and the residual activity [24] was 46.8%. For the same compound, the residual activity [27] was 10.7% and the residual activity [37] was 12.2%.
In the case of `O=S(=O)(NCCNC/C=C/c1ccc(Br)cc1)c1cccc2cnccc12`, the residual activity [1] is reported as 90.1%, the residual activity [2] is reported as 92.1% and the residual activity [3] is reported as 72%. It also gave a residual activity [4] of 51.1%, a residual activity [5] of 98.9% and a residual activity [42] of 90.7%. It also gave a residual activity [6] of 91.6%, a residual activity [7] of 75.1% and a residual activity [8] of 79.2%. For the same compound, the residual activity [9] was 94.3%, the residual activity [10] was 90.2% and the residual activity [11] was 94.4%. The residual activity [12] was 90.1%, the residual activity [13] was -2.49% and the residual activity [14] was 107%. For the same compound, the residual activity [15] was 109%, the residual activity [16] was 94.7% and the residual activity [17] was 90.8%. It also gave a residual activity [18] of 83.7%, a residual activity [19] of 101% and a residual activity [20] of 69%. For the same compound, the residual activity [21] was 101% and 126%, the residual activity [22] was 107% and the residual activity [23] was 77.9%. It also gave a residual activity [24] of 96.9%, a residual activity [25] of 106% and a residual activity [26] of 77.7%. For the same compound, the residual activity [27] was 79.5%, the residual activity [28] was 92.6% and the residual activity [29] was 97%. For the same compound, the residual activity [30] was 107%, the residual activity [31] was 88.3% and the residual activity [32] was 93.2%. The residual activity [33] was 85.4%, the residual activity [34] was 102% and the residual activity [35] was 102%. It also gave a residual activity [36] of 103%, a residual activity [37] of 80.7% and a residual activity [38] of 110%. For the same compound, the residual activity [39] was 55.1% and the residual activity [40] was 93.4%.
